# Experiments:
# [1] = system: α-amylase; assay: α-Amylase inhibition assay; assay type: biochemical; conditions: versus standard inhibitor acarbose
# [2] = system: α-glucosidase; assay: α-Glucosidase inhibition assay; assay type: biochemical; conditions: versus standard inhibitor acarbose
smiles,measurement,setting,value
"O=C(CCc1nc2ccccc2[nH]1)N/N=C/c1cc2ccccc2nc1SCC(=O)Nc1ccc(F)cc1 [Compound 12n, (E)-2-((3-((2-(3-(1 H-benzo[d]imidazol-2-yl)propanoyl)hydrazineylidene)methyl)quinolin-2-yl)thio)-N-(4-fluorophenyl)acetamide]",fold more potent than acarbose against α-amylase,[1],23.8 fold
same,fold more potent than acarbose against α-glucosidase,[2],5 fold
